Measurements reported in publication PMC9227536, “Prediction of Pharmacokinetics of IDP-73152 in Humans Using Physiologically-Based Pharmacokinetics” (Pharmaceutics, 2022).
Like-named read-outs stand apart in the source and are kept apart here.

What was measured:
[1] = PK study in rats (intravenous and oral); assay type: in vivo, Male Sprague Dawley rats; details: for Vd / clearance: iv, 10 mg/kg; for Vd: read-out: Vss; for clearance: read-out: CLp (converted); for Tmax: 20 mg/kg
Description: The in vivo experimental protocol was approved by the Institutional Animal Care and Use Committee of Research Laboratory at Ildong pharmaceutical Co., Ltd. (Ref. No.: IDL-PDF-001 and 09005-11004). Animals were acclimatized to the laboratory conditions for at least 1 week before the experiments and were kept in the standardized conditions (20–25 °C, 55 ± 5% humidity, and a 12 h light/dark cycle). The animals fasted overnight prior to drug administration, and food was resupplied 4 h post-dose. Male Sprague Dawley rats (Orient Bio Inc., Seongnam, Korea), weighing 194.7 g to 205.4 g, were used in this study. IDP-73152 was administered to rats at a single dose of 2.5, 5, or 10 mg/kg via tail vein injection (the injection volume fixed at 2 mL/kg in saline). […] Blood samples (100 μL) were collected from the jugular vein at 0.167, 0.33, 0.5, 1, 2, 4, and 8 h after the administration. Plasma was separated/collected by centrifugation of the blood samples for 5 min at 10,000× g/4 °C and stored at −80 °C until analysis. When necessary, the biliary and renal excretion of IDP-73152 were studied in bile duct-cannulated rats after the intravenous injection (5 mg/kg) to investigate its route(s) of excretion in rats. Bile and urine samples were collected up to 8 h (i.e., approximately 5 times of the terminal phase half-life) after the administration and the samples were stored at −80 °C until the analysis. The cumulative excretion of the bile and the urine to infinite time was determined by assuming that the excretion was practically completed by the last collection time. When necessary for a model independent PK analysis, a standard moment analysis was carried out with WinNonlin software using either representative (for the study with mice) or individual (for the study with rats, dogs, and humans) concentration–time profile(s). For the calculation of PBPK models, Berkeley Madonna 8.3.18 (Albany, CA, USA) was used with the fourth-order Runge–Kutta method for numerical integration.

[2] = PBPK model prediction, mice
From the text: In this study, the PBPK model involving ten tissues (i.e., adipose tissue, brain, heart, kidney, liver, lung, muscle, skin, spleen, and testis (Figure 2; see Appendix A for detailed mathematical descriptions)) was considered to be applicable for the description of IDP-73152 PK in rats, mice, dogs, and humans. Physiological variables were obtained from the literature; they are summarized in Supplementary Table S1.
For the estimation of the volume of the distribution of IDP-73512 in rats, the steady-state volume of distribution (Vss) was calculated using the following equation [30]:(10) Vss=VP+Vrbc×EP+∑VT,i×KP,ss,i, where Vp, Vrbc, and VT,i are the volumes of plasma, red blood cells, and tissues, respectively. The erythrocyte-to-plasma partition coefficient (EP), is calculated by EP=1+(BP−1)/Hematocrit . The KP,ss for each tissue obtained from Equation (8) was applied for Equation (10). For the case of non-eliminating organs, the KP,ss was regarded as the tissue-to-plasma partition coefficient (KP) in PBPK equations (Appendix A). For the case of the liver—i.e., the eliminating organ—the KP,ss (KP,ss,LI) had to be corrected to account for the equilibrium being altered by the elimination. Thus, a PBPK-operative KP for liver (KP,LI) was calculated using the following equation [31]:(11) KP,LI=KP,ss,LI/(1−ER), where ER is the hepatic extraction ratio of the compound (i.e., CLh/(QLI·BP)). In this study, a compartmental absorption and transit (CAT) model consisting of stomach and five intestinal segments was considered for the description of the intestinal absorption kinetics of IDP-73152 in animals and humans. We assumed that the initial compartment denoted the stomach (Equation (12)), and the subsequent three compartments represented the small intestine and two additional compartments for the large intestine (i.e., a total of six compartments, with absorption occurring in the five intestinal compartments) (Equation (13)). The differential equations describing the rate of drug absorption and transit in the gastrointestinal tract can be written as:
For the intestine, viz. i = 1~5:(13) dMi/dt=Kt,i−1×Mi−1−(Kt,i+ka,i)×Mi, where Ms is the amount of drug in the stomach; Mi is the amount of drug in the i-th intestinal segment; Ks, Kt,i, and ka,i are the rate constants of gastric emptying, intestinal transit, and the segmental absorption rate, respectively. In Equation (13) at i = 1, Kt,0 and M0 represent Ks and Ms, respectively. […] The absorption rate constant in the intestinal segments in humans, ka,i,human, was assumed to be identical along the segments and calculated as follows: first, Peff was empirically estimated from the Caco-2 cell permeability (Papp):(14) LogPeff=0.4926×LogPapp−0.1454 […]

[3] = tested on: vancomycin-resistant Enterococcus faecium; details: infected mice, twice-a-day dosing; cited from earlier work
[4] = male, Sprague Dawley, rat, plasma, intravenous, across doses of 2.5, 5, and 10 mg/kg

**Q.** What does the source list for CC(C)(C)[C@H](NC(=O)[C@H](CC1CCCC1)CN(O)C=O)C(=O)N1CCC(NCc2cc(F)c(F)cc2F)CC1 [IDP-73152]?
**A.** AUC(0-inf) ([1]; male, Sprague Dawley, rat, plasma, intravenous 2.5 mg/kg, read-out: Observed AUCinf): 1320 ± 130 ng·h/mL; AUC(0-inf) ([1]; male, Sprague Dawley, rat, plasma, intravenous 5 mg/kg, read-out: Observed AUCinf): 3270 ± 1820 ng·h/mL; AUC(0-inf) ([1]; male, Sprague Dawley, rat, plasma, intravenous 10 mg/kg, read-out: AUCinf): 5030 ± 380 ng·h/mL; half-life ([1]; male, Sprague Dawley, rat, plasma, intravenous 10 mg/kg, read-out: t1/2 (converted)): 1.43 ± 0.11 h; Vd ([1]; male, Sprague Dawley, rat, plasma, intravenous 10 mg/kg, moment analysis): 2.54 ± 0.26 L/kg; clearance ([1]; male, Sprague Dawley, rat, plasma, intravenous 10 mg/kg): ~33.3 mL/min/kg; clearance [1, 4]: 30.8 to 33.3 mL/min/kg; Vd [1, 4]: 2.45 to 2.78 L/kg; Cmax ([1]; male, Sprague Dawley, rat, plasma, oral 20 mg/kg): 1650 ± 440 ng/mL; bioavailability ([1]; male, Sprague Dawley, rat, plasma, oral 20 mg/kg vs intravenous 10 mg/kg, read-out: F (bioavailability)): 55.3%; AUC(0-inf) ([1]; male, Sprague Dawley, rat, plasma, oral 20 mg/kg, read-out: AUCinf): 5570 ± 1590 ng·h/mL; half-life ([1]; male, Sprague Dawley, rat, plasma, oral 20 mg/kg, read-out: t1/2 (terminal phase half-life) (converted)): 2.97 ± 1.4 h; Tmax ([1]; male, Sprague Dawley, rat, plasma, po, oral 20 mg/kg, read-out: Tmax): 0.667 h; Tmax ([1]; oral 20 mg/kg): 0.638 ± 0.29 h; AUC ratio ([2]; intravenous 10 mg/kg): 1.15; Cmax ratio without the scaling (SF) ([2]; oral): 1.72; AUC ratio ([2]; oral 20 mg/kg): 0.880; Cmax ratio ([2]; oral 20 mg/kg): 0.906; ED50 (oral dose at which the survival rate was 50%) [3]: 13.3 mg/kg
